Data published in patent publication US20170151261A1, “SKIN WOUND HEALING AND SCAR REDUCTION WITH PROSTAGLANDIN EP4 AGONIST COMBINATIONS” (Allergan, Inc., priority 2012, published 2017).

Biological target: EP4 (Homo sapiens, UniProt P35408)
Assay: EP4 binding (Ki / IC50)

Chain of EP4 (P35408 whole entry): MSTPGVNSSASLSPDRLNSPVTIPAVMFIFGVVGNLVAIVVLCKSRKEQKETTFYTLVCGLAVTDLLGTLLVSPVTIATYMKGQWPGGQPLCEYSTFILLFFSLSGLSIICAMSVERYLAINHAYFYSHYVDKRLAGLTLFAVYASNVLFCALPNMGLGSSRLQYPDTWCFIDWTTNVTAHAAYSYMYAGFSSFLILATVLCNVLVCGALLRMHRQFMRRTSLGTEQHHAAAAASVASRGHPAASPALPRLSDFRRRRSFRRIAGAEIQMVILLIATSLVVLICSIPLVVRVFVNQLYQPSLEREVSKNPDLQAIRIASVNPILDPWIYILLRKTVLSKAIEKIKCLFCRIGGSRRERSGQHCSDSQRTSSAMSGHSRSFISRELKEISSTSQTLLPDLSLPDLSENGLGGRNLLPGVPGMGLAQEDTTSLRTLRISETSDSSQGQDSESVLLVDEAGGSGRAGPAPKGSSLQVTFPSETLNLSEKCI

CCCCC[C@H](O)c1ccc(N2C(=O)CC[C@@H]2CCCc2ccc(C(=O)O)s2)cc1
IC50: > 10 µM
